Measurements: patent US10815274B2, “Immunogenic WT-1 peptides and methods of use thereof” (Memorial Sloan Kettering Cancer Center, priority 2012, dated 2020)
Where a SMILES comes first, the peptide text is derived from it.

Tests used:
WT1- autologous APC = assay: Cr51 release assay, cytotoxic CTL response vs unmodified autologous APC; assay type: cell-based, human; settings: 50:1 E:T
[1] = test system: WT1 peptide loaded autologous APC; assay: Cr51 release assay, cytotoxic CTL response vs peptide loaded autologous APC; assay type: cell-based, human; settings: 50:1 E:T
WT1- leukemia = assay: Cr51 release assay, cytotoxic CTL response vs WT1- leukemia; assay type: cell-based, human; settings: 50:1 E:T
From the text: (§1) Twenty-four primary leukemic cells and 1 leukemic cell line were characterized for their expression of WT1 by intracellular FACS staining using murine anti-human WT1 monoclonal antibodies (Neomarkers, Fremont, Calif.) as previously described (32,38) The WT1+ leukemias included blast cells from 11 primary AMLs, 3 primary ALLs and 1B-cell precursor ALL cell line. Ten WT1-leukemias, were used as controls, and included 3 B-cell precursor ALLs and 7 AMLs.

WT1+ leukemia = assay: Cr51 release assay, cytotoxic CTL response vs WT1+ leukemia expressing restricting HLA allele; assay type: cell-based, human; settings: 50:1 E:T
From the text: as §1
PHA blasts were not available from every patient that provided leukemia blasts for this study.

[2] = test system: WT1- allo APC with restricting HLA allele; assay: Cr51 release assay, cytotoxic CTL response vs unloaded allogeneic APC sharing restricting HLA allele; assay type: cell-based, human; settings: 50:1 E:T
[3] = test system: WT1+ allo APC with restricting HLA allele loaded with WT1 peptide; assay: Cr51 release assay, cytotoxic CTL response vs peptide loaded allogeneic APC sharing restricting HLA allele (HLA restriction); settings: for Cytotoxic CTL response, % vs WT1+ allo APC with restricting HLA allele loaded with WT1 peptide: 50:1 E:T

| Compound | Cytotoxic CTL response, % vs WT1- autologous APC (WT1- autologous APC; HLA allele A0201) [%] | Cytotoxic CTL response, % vs WT1 peptide loaded autologous APC ([1]; HLA allele A0201) [%] | Cytotoxic CTL response, % vs WT1- leukemia (WT1- leukemia; HLA allele A0201) [%] | Cytotoxic CTL response, % vs WT1+ leukemia (WT1+ leukemia; HLA allele A0201) [%] | Cytotoxic CTL response, % vs WT1- allo APC with restricting HLA allele ([2]; HLA allele A0201) [%] | Cytotoxic CTL response, % vs WT1+ allo APC with restricting HLA allele loaded with WT1 peptide ([3]; HLA allele A0201) [%] | Cytotoxicity of T-cells restricted by HLA A0201 against loaded targets [3] | also measured |
| --- | --- | --- | --- | --- | --- | --- | --- | --- |
| CC(C)C[C@H](NC(=O)[C@H](C)NC(=O)[C@H](CC(N)=O)NC(=O)[C@H](CC(C)C)NC(=O)[C@H](CC(=O)O)NC(=O)[C@@H](N)CCCNC(=N)N)C(=O)N[C@@H](CC(C)C)C(=O)N1CCC[C@H]1C(=O)N[C@@H](C)C(=O)N[C@H](C(=O)O)C(C)C [SEQ ID NO: 152] (H-RDLNALLPAV-OH; N-terminus and C-terminus assumed) | 2 | 51 | 0 | 9 | 4 | 31 |  | Cytotoxic CTL response, % vs WT1- autologous APC (WT1- autologous APC; HLA allele B5701): 3%; Cytotoxic CTL response, % vs WT1 peptide loaded autologous APC ([1]; HLA allele B5701): 44%; Cytotoxic CTL response, % vs WT1- allo APC with restricting HLA allele ([2]; HLA allele B5701): 1%; Cytotoxic CTL response, % vs WT1+ allo APC with restricting HLA allele loaded with WT1 peptide ([3]; HLA allele B5701): 22% |
| CC(C)C[C@H](N)C(=O)N[C@@H](CC(=O)O)C(=O)N[C@@H](Cc1ccccc1)C(=O)N[C@@H](C)C(=O)N1CCC[C@H]1C(=O)N1CCC[C@H]1C(=O)NCC(=O)N[C@@H](C)C(=O)N[C@@H](CO)C(=O)O [SEQ ID NO: 155] (H-LDFAPPGAS-OH; N-terminus and C-terminus assumed) | 0 | 73 | 0 | 40 | 1 | 62 | able to lyse |  |
| CC(C)C[C@H](N)C(=O)N[C@@H](CC(=O)O)C(=O)N[C@@H](Cc1ccccc1)C(=O)N[C@@H](C)C(=O)N1CCC[C@H]1C(=O)N1CCC[C@H]1C(=O)NCC(=O)N[C@@H](C)C(=O)N[C@@H](CO)C(=O)N[C@@H](C)C(=O)N[C@@H](Cc1ccc(O)cc1)C(=O)O [SEQ ID NO: 156] (H-LDFAPPGASAY-OH; N-terminus and C-terminus assumed) |  |  |  |  |  |  | able to lyse | Cytotoxic CTL response, % vs WT1- autologous APC (WT1- autologous APC; HLA allele DRB10402): 0%; Cytotoxic CTL response, % vs WT1 peptide loaded autologous APC ([1]; HLA allele DRB10402): 73%; Cytotoxic CTL response, % vs WT1- leukemia (WT1- leukemia; HLA allele DRB10402): 0%; Cytotoxic CTL response, % vs WT1+ leukemia (WT1+ leukemia; HLA allele DRB10402): 40%; Cytotoxic CTL response, % vs WT1- allo APC with restricting HLA allele ([2]; HLA allele DRB10402): 1%; Cytotoxic CTL response, % vs WT1+ allo APC with restricting HLA allele loaded with WT1 peptide ([3]; HLA allele DRB10402): 71%; Cytotoxicity of class II HLA-restricted T-cells against loaded targets ([3]; targets sharing the alleles DRB1 0402 and DQB1 0302): selectively cytotoxic |
| C[C@H](NC(=O)[C@@H]1CCCN1)C(=O)N1CCC[C@H]1C(=O)N1CCC[C@H]1C(=O)N1CCC[C@H]1C(=O)N1CCC[C@H]1C(=O)N1CCC[C@H]1C(=O)N1CCC[C@H]1C(=O)N1CCC[C@H]1C(=O)O [SEQ ID NO: 158] (H-PAPPPPPPP-OH; N-terminus and C-terminus assumed) | 2 | 40 | 0 | 0 | 1 | 18 |  |  |
| CSCC[C@H](NC(=O)[C@@H]1CCCN1C(=O)[C@H](CC(=O)O)NC(=O)[C@H](CCC(=O)O)NC(=O)[C@H](Cc1c[nH]cn1)NC(=O)[C@H](CCCCN)NC(=O)[C@H](Cc1ccccc1)NC(=O)[C@H](CO)NC(=O)[C@@H](N)Cc1c[nH]cn1)C(=O)O [SEQ ID NO: 165] (H-HSFKHEDPM-OH; N-terminus and C-terminus assumed) |  |  |  |  |  |  |  | Cytotoxic CTL response, % vs WT1- autologous APC (WT1- autologous APC; HLA allele B3501): 0%; Cytotoxic CTL response, % vs WT1 peptide loaded autologous APC ([1]; HLA allele B3501): 50%; Cytotoxic CTL response, % vs WT1- leukemia (WT1- leukemia; HLA allele B3501): 5%; Cytotoxic CTL response, % vs WT1+ leukemia (WT1+ leukemia; HLA allele B3501): 45%; Cytotoxic CTL response, % vs WT1- allo APC with restricting HLA allele ([2]; HLA allele B3501): 3%; Cytotoxic CTL response, % vs WT1+ allo APC with restricting HLA allele loaded with WT1 peptide ([3]; HLA allele B3501): 63%; Cytotoxic activity against panel of allogeneic CAMs loaded with peptide, each sharing one HLA allele ([3]; peptide loaded autologous targets and targets expressing HLA-B3501, not targets sharing other alleles): selectively lysed |
